Results taken from patent publication US12162892B2, “CD16a binding agents and uses thereof” (KLEO PHARMACEUTICALS, INC., priority 2018, dated 2024).
Several values for one entry are separate records, joined by “and”; a condition that tells them apart may be missing. Equal values may be shown once.

Tests used:
CD16a158V [1] = target: T1, CD16a158V (Homo sapiens, UniProt P08637, F176V); experiment: Biotinylated Ligand ELISA Assay; type: binding; details: Biotinylated CD16a protein at 10 nM
Procedure: (§1) Coat ELISA plates (Costar 3922) using Neutravidin (Thermo 31000) at 5 μg/ml (100 μl/well) for 1 hour at 37° C. Plates were washed 4 times with PBST (PBS, 0.05% Tween 20-200 μl, 1 minute/wash) then blocked using 200 μl 5% bovine serum albumin (BSA, Heat Shock, Fraction V-American Bio AB01088-00100) in PBST for 2 hours at 25° C. with moderate shaking. BSA was removed and plates were washed. Biotinylated ligands diluted in PBSTB (PBST+0.1% BSA) were then added (100 μl/well) and incubated for 1 hour at 25° C. with gentle shaking. Ligands were removed and plates were washed. Any remaining unoccupied neutravidin binding sites were blocked by adding 100 μM Biotin (Fisher BP232-1) (100 μl/well) and incubated for 1 hour at 25° C. with gentle shaking. Plates were then washed. […] Protein was removed and plates were washed. Streptavidin-HRP (Invitrogen 434323) diluted 1:5000 in PBSTB was added (100 μl/well) and incubated for 1 hour at 25° C. with gentle shaking. Wash plates. Substrate (Super Signal ELISA Pico Chemiluminescent Substrate-Thermo 37069) was added (100 μl/well) and plates were incubated for 5 minutes at 25° C. with gentle shaking. Luminescence was then measured on the Biotek Synergy H1 microplate reader.

CD32a H167 = target: T2, CD32a H167 (Homo sapiens, UniProt P12318); experiment: Biotin ELISA, interaction with various receptors (Example 55); type: binding; details: three replicate values per compound
T2 sequence (P12318 36-218 limits assumed): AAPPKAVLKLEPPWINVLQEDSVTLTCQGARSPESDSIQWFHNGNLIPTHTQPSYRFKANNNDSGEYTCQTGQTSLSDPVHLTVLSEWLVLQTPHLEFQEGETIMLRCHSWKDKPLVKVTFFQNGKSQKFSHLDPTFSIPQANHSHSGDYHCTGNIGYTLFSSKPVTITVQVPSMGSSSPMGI
Procedure: as §1
(§2) Using similar methods as Examples 47 or 53, interactions with a number of receptors were measured. In some embodiments, “stock” is antibody only, and “control” is an antibody that went through the same procedure except using DMSO only as opposed to a compound. When contacted with targeting moieties such as antibodies in the Examples, compounds, e.g., I-95, I-96, etc. can react through their reactive groups

CD32a-R167 = experiment: as above; type: binding; details: three replicate values per compound
Procedure: as §1, §2

CD16a158V [2] = target: T1, CD16a158V; experiment: as above; type: binding; details: three replicate values per compound
Procedure: as §1, §2

CD64 = CD64 (Homo sapiens, UniProt P12314); experiment: as above; type: binding; details: three replicate values per compound
Sequence of CD64 (P12314 16-374): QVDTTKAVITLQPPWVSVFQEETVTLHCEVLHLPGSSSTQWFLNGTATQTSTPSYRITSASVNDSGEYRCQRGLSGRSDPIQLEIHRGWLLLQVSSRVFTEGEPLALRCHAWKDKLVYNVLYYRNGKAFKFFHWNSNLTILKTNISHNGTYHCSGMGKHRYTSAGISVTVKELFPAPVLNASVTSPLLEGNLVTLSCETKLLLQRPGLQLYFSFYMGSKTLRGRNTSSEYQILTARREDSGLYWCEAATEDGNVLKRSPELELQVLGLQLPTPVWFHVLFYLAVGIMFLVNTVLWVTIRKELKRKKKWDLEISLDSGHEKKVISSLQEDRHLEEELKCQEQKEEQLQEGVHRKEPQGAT
Procedure: as §1, §2

CD16a158F [3] = target: T3, CD16a158F (Homo sapiens, UniProt P08637); experiment: as above; type: binding; details: three replicate values per compound
T3 sequence (P08637 17-208 limits assumed): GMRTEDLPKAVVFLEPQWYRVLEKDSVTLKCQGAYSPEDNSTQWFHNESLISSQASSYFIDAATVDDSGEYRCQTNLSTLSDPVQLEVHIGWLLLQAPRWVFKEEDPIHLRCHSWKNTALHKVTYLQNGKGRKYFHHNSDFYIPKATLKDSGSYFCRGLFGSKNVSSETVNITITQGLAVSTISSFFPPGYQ
Procedure: as §1, §2

CD32b = target: T4, CD32b (Homo sapiens, UniProt P31994); experiment: as above; type: binding; details: three replicate values per compound
T4 sequence (P31994 43-310): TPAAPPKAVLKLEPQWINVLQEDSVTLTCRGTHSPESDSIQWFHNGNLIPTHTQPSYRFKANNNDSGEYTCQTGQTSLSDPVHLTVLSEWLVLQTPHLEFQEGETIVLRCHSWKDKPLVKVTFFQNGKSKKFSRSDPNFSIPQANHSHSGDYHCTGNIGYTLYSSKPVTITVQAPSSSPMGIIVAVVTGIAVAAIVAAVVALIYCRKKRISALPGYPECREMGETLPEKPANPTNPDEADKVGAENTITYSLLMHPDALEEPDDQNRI
Procedure: as §1, §2

CD3ed = CD3ed (Homo sapiens, UniProt P04234+P07766); experiment: as above; type: binding; details: three replicate values per compound
Sequence of CD3ed (P07766 23-126 limits assumed): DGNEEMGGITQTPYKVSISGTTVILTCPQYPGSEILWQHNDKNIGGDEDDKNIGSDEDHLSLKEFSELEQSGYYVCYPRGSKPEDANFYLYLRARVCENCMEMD
Sequence of CD3ed (P04234 22-105 limits assumed): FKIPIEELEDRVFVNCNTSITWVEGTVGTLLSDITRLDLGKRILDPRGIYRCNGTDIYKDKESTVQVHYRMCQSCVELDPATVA
Procedure: as §1, §2

primary monocytes = experiment: ADCP assay using fresh primary monocytes; type: cell-based, human; details: beads loaded with test compound at 50 uM; 37C for 18 hrs
Procedure: (§3) Biotinylated fluorescent beads (Invitrogen, cat #P35372) were thoroughly mixed by vortexing for 1 min. Ten microliters of supplied bead suspension per treatment type were dispensed in Eppendorf tubes, and washed with 1 ml PBS […], then re-suspended in 500 uL of 1% BSA in PBS. Test compounds were added to bead suspensions to a final concentration of 50 uM, and biotinylated human IgG whole molecule (Rockland 009-0602) final concentration of 20 ug/mL.
(§4) Tubes were incubated at room temperature for 1 hr on a rocking platform.
(§5) Following incubation, beads were pelleted in a microcentrifuge at 12,000 g for 5 minutes at room temperature. Supernatants were carefully aspirated and beads were washed 5 times by resuspending in 1 ml of PBS 1% BSA, and centrifuging as described above. Finally, beads were resuspended in 500 ul of PBS 1% BSA and used in ADCP assay.
PBMC, freshly isolated from whole blood (Bioreclamation IVT0) using Ficoll-Paque density centrifugation were resuspended in serum-free, supplemented RPMI at 2×10^6 cells/mL.
Ten milliliters of the resulting cell suspension was seeded into 75-cm^2 tissue culture flask (Denville Scientific TC9341) and incubated 2-3 hr at 37° C. 5% CO2 to allow cell adhesion. Following incubation, media was decanted and surface of the flask was carefully washed twice, each time with 10 ml serum-free, supplemented RPMI to remove any residual non-adherent cells. To remove adherent cells, 10 mL of ice-cold 2.5 mM EDTA/PBS solution was added for 10 min on ice. Cells were transferred to a 15-ml conical tube and centrifuge 10 min at 300×g, room temperature, to remove the EDTA/PBS solution. Monocytes were then resuspended in RPMI 10% FCS at 5×10^5 cells/mL to be used in ADCP assay. Monocyte purity was assessed by staining cells with antibodies to human CD3 FITC (Biolegend 300306), CD19 PeCy7 (Biolegend 302216), CD14 BV421 (BD Biosciences, 565283), and CD16 (Biolegend 302046).
(§6) Monocytes or THP-1 cells (TIB-202 ATCC) were seeded into 96 well round bottom 96 well plates at the density of 10^5 cells per well in 200 ul, and 10 uL of fluorescent bead suspension prepared as described above was added to each well. Well contents were mixed by pipetting up and down using a multichannel pipet, and plates were incubated at 37C for 18 hrs. After incubation, well contents were transferred into flat bottom black 96 well plates (Costar #3358) and centrifuged for 2 minutes at 300 g to allow for better visualization of the cells. Images were taken using Zoe fluorescent cell imager (Biorad).

[4] = tested on: CD16a negative THP1 cells; experiment: ADCP assay using THP-1 cells; type: cell-based; details: beads loaded with test compound at 50 uM; 37C for 18 hrs
Procedure: as §3, §4, §5, §6

CD16a158F [5] = target: T3, CD16a158F; experiment: Biotinylated Ligand ELISA Assay; type: binding; parameters: purchased Acro Biosystems CDA-H82E8; details: Biotinylated CD16a protein at 10 nM
Procedure: as §1

[6] = Biotin ELISA, No Protein (Example 55); type: binding; details: three replicate values per compound
Procedure: as §1, §2

CD16a158V [7] = target: T1, CD16a158V; experiment: Microscale Thermophoresis; type: binding; details: read-out: MST-CD16a158V KD
Procedure: Target proteins (poly-histidine tagged, 600 nM) were fluorescently labeled combination with an equal volume of dye (200 nM, His-Tag labeling kit RED-tris-NTA NanoTemper: MO-L008) PBST. The mixture rotated in the dark for 45 min before being spun down at 12000 rpm for 15 min to remove uncomplexed material. The fluorescence of the removed supernatant was adjusted to for a test concentration of 40-80 nM (2× the final measured). Test ligands were prepared across a 12-point dilution series in a 96-well PCR plate at a volume of 20 uL at 2× the concentration desired for testing (0.2% BSA in PBST). The dilution series was then combined with an equal volume of the labeled target at 2× the concentration desired for testing. Capillaries were added to the wells of the combined target/ligand complex and measured by MST. Measurements were taken using a Nanotemper Monolith NT.115, and the data was analyzed using NanoTemper MO.Control software.

T1 sequence (P08637 17-208 F176V): as the sequence (P08637 17-208 limits assumed) above, with F160V counted along it

Row | Compound | Biotinylated Ligand ELISA-CD16a158V Binding (RLU) (CD16a158V [1]) | Biotin ELISA Results CD32a-H167 (CD32a H167) | Biotin ELISA Results CD32a-R167 (CD32a-R167) | Biotin ELISA Results CD16a-158V (CD16a158V [2]) | Biotin ELISA Results CD64 (CD64) | Biotin ELISA Results CD16a-158F (CD16a158F [3]) | Biotin ELISA Results CD32b (CD32b) | Biotin ELISA Results CD3ed (CD3ed) | ACDP (primary monocytes)-normalized phagocytosis score (primary monocytes) | ACDP (CD16a negative THP1 cells)-normalized phagocytosis score [4] | Biotinylated Ligand ELISA-CD16a158F Binding (RLU) (CD16a158F [5]) | Biotin ELISA Results No Protein [6] | Kd (CD16a158V [7]) [nM]
1 | O=C(CCCC[C@@H]1SC[C@@H]2NC(=O)N[C@@H]21)NCCOCCOCCOCCOCCOCCOCCOCCOCCn1cc(-c2ccc(NC(=O)N3CCC4(CC3)NC(=O)N(Cc3ccccc3)C4=O)cc2)nn1 [Compound I-17, N-{4-[1-(26-{5-[(3aS,4S,6aR)-2-oxo-hexahydro-1H-thieno[3,4-d]imidazol-4-yl]pentanamido}-3,6,9,12,15,18,21,24-octaoxahexacosan-1-yl)-1H-1,2,3-triazol-4-yl]phenyl}-3-benzyl-2,4-dioxo-1,3,8-triazaspiro[4.5]decane-8-carboxamide] | D (a relative luminescence value (RLU) of 1-1,000) | 1642 and 1978 and 2246 | 11182 and 5954 and 10675 | 443 and 2316 and 1591 | 44623 and 46028 and 52372 | 122 and 5830 and 2636 | 2439 and 955 and 1191 | 1412 and 1083 and 1250 | C (a normalized phagocytosis score of 1.0-1.5) | B (a normalized phagocytosis score of 1.5-2.0) | D (a relative luminescence value (RLU) of 1-1,000) | −236 and −272 and 237 | 
2 | O=C(CCCC[C@@H]1SC[C@@H]2NC(=O)N[C@@H]21)NCCOCCOCCOCCOCCOCCOCCOCCOCCn1cc(-c2ccc(NC(=O)N3CCC4(CC3)NC(=O)N(c3ccccc3)C4=O)cc2)nn1 [Compound I-18, N-{4-[1-(26-{5-[(3aS,4S,6aR)-2-oxo-hexahydro-1H-thieno[3,4-d]imidazol-4-yl]pentanamido}-3,6,9,12,15,18,21,24-octaoxahexacosan-1-yl)-1H-1,2,3-triazol-4-yl]phenyl}-2,4-dioxo-3-phenyl-1,3,8-triazaspiro[4.5]decane-8-carboxamide] | D (a relative luminescence value (RLU) of 1-1,000) |  |  |  |  |  |  |  |  | B (a normalized phagocytosis score of 1.5-2.0) | D (a relative luminescence value (RLU) of 1-1,000) |  | 
3 | O=C(CCCC[C@@H]1SC[C@@H]2NC(=O)N[C@@H]21)NCCOCCOCCOCCOCCOCCOCCOCCOCCNC(=O)c1cnc(N2CCC3(CC2)NC(=O)C(Nc2ccccc2)C3=O)nc1 (some centres unmarked) [Compound I-21] | A (a relative luminescence value (RLU) of >100,000) | 15126 and 14461 and 15658 | 12004 and 10942 and 9796 | 5747 and 5338 and 6303 | 98211 and 69008 and 131784 | 6775 and 6468 and 5831 | 14249 and 14080 and 11349 | 8285 and 6369 and 7518 | C (a normalized phagocytosis score of 1.0-1.5) | D (a normalized phagocytosis score of 0.5-1.0) | A (a relative luminescence value (RLU) of >100,000) | 7902 and 6992 and 7029 | 
4 | COc1ccc(OC)c(N2CC(C(=O)Nc3ccc(-c4cn(CCOCCOCCOCCOCCOCCOCCOCCOCCNC(=O)CCCC[C@@H]5SC[C@@H]6NC(=O)N[C@@H]65)nn4)cc3)CC2=O)c1 (some centres unmarked) [Compound I-39] | C (a relative luminescence value (RLU) of 1,000-10,000) |  |  |  |  |  |  |  | B (a normalized phagocytosis score of 1.5-2.0) | B (a normalized phagocytosis score of 1.5-2.0) | C (a relative luminescence value (RLU) of 1,000-10,000) |  | 100 to 500
